Data as given in patent US20230141603A1, “BENZODIAZEPINE DERIVATIVES AS GABA A GAMMA1 PAM” (Hoffmann-La Roche Inc., priority 2021, published 2023).

Molecular target: T1, h-GABAA α2β2γ1 (Homo sapiens, UniProt P47869+Q8N1C3)
T1 sequence (P47869 29-451): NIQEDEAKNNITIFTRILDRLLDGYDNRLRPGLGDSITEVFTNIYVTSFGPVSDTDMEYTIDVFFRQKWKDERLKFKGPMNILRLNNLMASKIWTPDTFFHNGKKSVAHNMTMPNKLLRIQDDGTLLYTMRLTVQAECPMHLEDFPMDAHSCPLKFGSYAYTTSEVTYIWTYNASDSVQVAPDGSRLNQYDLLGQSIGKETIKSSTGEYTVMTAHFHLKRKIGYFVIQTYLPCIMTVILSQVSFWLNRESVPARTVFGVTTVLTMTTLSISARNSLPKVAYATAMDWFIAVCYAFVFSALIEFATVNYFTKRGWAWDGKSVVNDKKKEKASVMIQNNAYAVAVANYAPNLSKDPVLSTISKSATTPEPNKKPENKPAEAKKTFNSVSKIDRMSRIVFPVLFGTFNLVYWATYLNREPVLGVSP
T1 sequence (P47870 25-512 partner limits assumed): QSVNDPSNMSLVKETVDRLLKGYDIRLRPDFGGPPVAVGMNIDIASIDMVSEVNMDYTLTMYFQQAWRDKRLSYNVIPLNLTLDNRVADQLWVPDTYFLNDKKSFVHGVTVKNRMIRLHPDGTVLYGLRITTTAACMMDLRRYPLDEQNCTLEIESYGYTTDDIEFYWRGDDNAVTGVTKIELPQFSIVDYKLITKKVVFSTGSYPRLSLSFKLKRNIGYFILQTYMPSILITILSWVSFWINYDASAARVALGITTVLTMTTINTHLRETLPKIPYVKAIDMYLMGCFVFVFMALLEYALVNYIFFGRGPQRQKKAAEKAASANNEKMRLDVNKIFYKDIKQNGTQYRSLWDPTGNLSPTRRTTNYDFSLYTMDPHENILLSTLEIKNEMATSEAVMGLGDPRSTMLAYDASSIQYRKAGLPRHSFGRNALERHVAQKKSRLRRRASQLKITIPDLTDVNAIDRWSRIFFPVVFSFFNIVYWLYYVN
T1 sequence (Q8N1C3 36-465): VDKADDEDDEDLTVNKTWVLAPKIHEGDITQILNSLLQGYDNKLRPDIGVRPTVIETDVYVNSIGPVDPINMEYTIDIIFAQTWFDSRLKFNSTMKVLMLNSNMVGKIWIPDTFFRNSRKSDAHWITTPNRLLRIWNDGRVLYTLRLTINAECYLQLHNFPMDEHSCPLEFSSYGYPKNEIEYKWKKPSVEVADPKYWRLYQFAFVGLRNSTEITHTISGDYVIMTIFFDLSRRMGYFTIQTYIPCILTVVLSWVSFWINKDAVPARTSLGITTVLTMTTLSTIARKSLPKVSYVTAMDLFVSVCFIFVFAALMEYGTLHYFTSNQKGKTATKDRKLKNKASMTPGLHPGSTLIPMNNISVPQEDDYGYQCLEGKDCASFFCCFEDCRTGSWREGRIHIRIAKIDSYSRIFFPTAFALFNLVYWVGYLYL
Experiment: Two-electrode voltage clamp electrophysiology in Xenopus oocytes, modulation of GABA EC20 current
Type: cell-based
Parameters: host or cells: Xenopus laevis oocytes, RNA micro-injection
Conditions: Table 2; for Efficacy (GABA)%: % modulation of GABA EC20 = 100*(Fold increase−1), compound at approx. 30-fold Ki; for Fold increase h-GABA-A α2β2γ1 oocyte @ 30-fold Ki: compound at approx. 30-fold its Ki α2β2γ1, GABA EC20, Xenopus oocytes
In short: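 Oocytes injected with receptor subunit mRNA were recorded 3–5 days later by two-electrode voltage clamp at −80 mV, room temperature, pH 7.4. Compound was applied during a second GABA EC20 pulse, with at least 3 oocytes per concentration. Efficacy is the ratio-trace extremum, expressed as % modulation of GABA EC20.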

Row | Compound | Efficacy (GABA)% [%] | Fold increase h-GABA-A α2β2γ1 oocyte @ 30-fold Ki
1 | Clc1cccnc1C1=NCc2nnc(-c3ccncn3)n2-c2ccc(Br)c(Cl)c21 [Example 44, 8-bromo-7-chloro-6-(3-chloro-2-pyridyl)-1-pyrimidin-4-yl-4H-[1,2,4]triazolo[4,3-a][1,4]benzodiazepine] | 62 | 1.62
2 | Fc1cccnc1C1=NCc2nnc(-c3cccnn3)n2-c2ccc(Br)c(Cl)c21 [Example 45, 8-bromo-7-chloro-6-(3-fluoro-2-pyridyl)-1-pyridazin-3-yl-4H-[1,2,4]triazolo[4,3-a][1,4]benzodiazepine] | 828 | 9.28
3 | Fc1cccnc1C1=NCc2nnc(-c3ccncn3)n2-c2ccc(Br)c(Cl)c21 [Example 46, 8-bromo-7-chloro-6-(3-fluoro-2-pyridyl)-1-pyrimidin-4-yl-4H-[1,2,4]triazolo[4,3-a][1,4]benzodiazepine] | 55 | 1.55
4 | Clc1cccnc1C1=NCc2nnc(-c3cccnn3)n2-c2ccc(Br)c(Cl)c21 [Example 47, 8-bromo-7-chloro-6-(3-chloro-2-pyridyl)-1-pyridazin-3-yl-4H-[1,2,4]triazolo[4,3-a][1,4]benzodiazepine] | 314 | 4.14
5 | Cc1ccc2c(c1Cl)C(c1c(F)cccc1F)=NCc1nnc(-c3cccnn3)n1-2 [Example 48, 7-chloro-6-(2,6-difluorophenyl)-8-methyl-1-pyridazin-3-yl-4H-[1,2,4]triazolo[4,3-a][1,4]benzodiazepine] | 101 | 2.01
6 | Cc1ccc2c(c1Cl)C(c1c(F)cccc1F)=NCc1nnc(-c3ccncn3)n1-2 [Example 49, 7-chloro-6-(2,6-difluorophenyl)-8-methyl-1-pyrimidin-4-yl-4H-[1,2,4]triazolo[4,3-a][1,4]benzodiazepine] | 57 | 1.57
7 | Cc1nnc2n1-c1ccc(Br)c(Cl)c1C(c1c(F)cccc1Cl)=NC2 [Example 50, 8-bromo-7-chloro-6-(2-chloro-6-fluoro-phenyl)-1-methyl-4H-[1,2,4]triazolo[4,3-a][1,4]benzodiazepine] | 54 | 1.54
8 | Fc1cccnc1C1=NCc2nnc(-c3cccnn3)n2-c2ccc(Cl)c(Cl)c21 [Example 54, 7,8-dichloro-6-(3-fluoro-2-pyridyl)-1-pyridazin-3-yl-4H-[1,2,4]triazolo[4,3-a][1,4]benzodiazepine] | 602 | 7.02
9 | Fc1cccnc1C1=NCc2nnc(-c3ccncn3)n2-c2ccc(Cl)c(Cl)c21 [Example 55, 7,8-dichloro-6-(3-fluoro-2-pyridyl)-1-pyrimidin-4-yl-4H-[1,2,4]triazolo[4,3-a][1,4]benzodiazepine] | 59 | 1.59
10 | COc1ccc2c(c1Cl)C(c1c(F)cccc1F)=NCc1nnc(-c3cccnn3)n1-2 [Example 57, 7-chloro-6-(2,6-difluorophenyl)-8-methoxy-1-pyridazin-3-yl-4H-[1,2,4]triazolo[4,3-a][1,4]benzodiazepine] | 149 | 2.49
11 | Cn1cc(-c2nnc3n2-c2ccc(Cl)c(Cl)c2C(c2ncccc2F)=NC3)cn1 [Example 58, 7,8-dichloro-6-(3-fluoro-2-pyridyl)-1-(1-methylpyrazol-4-yl)-4H-[1,2,4]triazolo[4,3-a][1,4]benzodiazepine] | 67 | 1.67
12 | O=c1[nH]nc2n1-c1ccc(Cl)c(Cl)c1C(c1ncccc1F)=NC2 [Example 59, 7,8-dichloro-6-(3-fluoro-2-pyridyl)-2,4-dihydro-[1,2,4]triazolo[4,3-a][1,4]benzodiazepin-1-one] | 115 | 2.15
13 | Fc1cccnc1C1=NCc2nncn2-c2ccc(Cl)c(Cl)c21 [Example 60, 7,8-dichloro-6-(3-fluoro-2-pyridyl)-4H-[1,2,4]triazolo[4,3-a][1,4]benzodiazepine] | 132 | 2.32
14 | COc1ccc2c(c1Cl)C(c1c(F)cccc1F)=NCc1nnc(-c3ccncn3)n1-2 [Example 61, 7-chloro-6-(2,6-difluorophenyl)-8-methoxy-1-pyrimidin-4-yl-4H-[1,2,4]triazolo[4,3-a][1,4]benzodiazepine] | 61 | 1.61
15 | COc1ccc2c(c1Cl)C(c1c(F)cccc1F)=NCc1nnc(-c3cccnc3)n1-2 [Example 62, 7-chloro-6-(2,6-difluorophenyl)-8-methoxy-1-(3-pyridyl)-4H-[1,2,4]triazolo[4,3-a][1,4]benzodiazepine] | 63 | 1.63
16 | Fc1cccnc1C1=NCc2nnc(C3CC3)n2-c2ccc(Cl)c(Cl)c21 [Example 65, 7,8-dichloro-1-cyclopropyl-6-(3-fluoro-2-pyridyl)-4H-[1,2,4]triazolo[4,3-a][1,4]benzodiazepine] | 114 | 2.14
17 | Fc1cccnc1C1=NCc2nnc(-c3ccncn3)n2-c2ccc(C(F)(F)F)c(Cl)c21 [Example 69, 7-chloro-6-(3-fluoro-2-pyridyl)-1-pyrimidin-4-yl-8-(trifluoromethyl)-4H-[1,2,4]triazolo[4,3-a][1,4]benzodiazepine] | 136 | 2.36
18 | Cn1cc(-c2nnc3n2-c2ccc(C(F)(F)F)c(Cl)c2C(c2ncccc2F)=NC3)cn1 [Example 70, 7-chloro-6-(3-fluoro-2-pyridyl)-1-(1-methylpyrazol-4-yl)-8-(trifluoromethyl)-4H-[1,2,4]triazolo[4,3-a][1,4]benzodiazepine] | 78 | 1.78
19 | Cc1nnc2n1-c1ccc(Cl)c(Cl)c1C(c1ncccc1F)=NC2 [Example 71, 7,8-dichloro-6-(3-fluoro-2-pyridyl)-1-methyl-4H-[1,2,4]triazolo[4,3-a][1,4]benzodiazepine] | 99 | 1.99
20 | Fc1cccnc1C1=NCc2nnc(-c3cccnn3)n2-c2ccc(C(F)(F)F)c(Cl)c21 [Example 72, 7-chloro-6-(3-fluoro-2-pyridyl)-1-pyridazin-3-yl-8-(trifluoromethyl)-4H-[1,2,4]triazolo[4,3-a][1,4]benzodiazepine] | 630 | 7.30
21 | Fc1cccnc1C1=NCc2nnc(C3CC3)n2-c2ccc(Br)c(Cl)c21 [Example 77, 8-bromo-7-chloro-1-cyclopropyl-6-(3-fluoro-2-pyridyl)-4H-[1,2,4]triazolo[4,3-a][1,4]benzodiazepine] | 66 | 1.66
22 | Cc1nnc2n1-c1ccc(C(F)(F)F)c(Cl)c1C(c1ncccc1F)=NC2 [Example 78, 7-chloro-6-(3-fluoro-2-pyridyl)-1-methyl-8-(trifluoromethyl)-4H-[1,2,4]triazolo[4,3-a][1,4]benzodiazepine] | 103 | 2.03
